# Test results taken from PMC3604040 (Biochemical pharmacology, 2013).
# How the values were obtained:
# [1] = target: T1, UDP-glucuronosyltransferase (UGT 2B7) (Homo sapiens, UniProt P16662)
# T1 sequence (P16662 24-529): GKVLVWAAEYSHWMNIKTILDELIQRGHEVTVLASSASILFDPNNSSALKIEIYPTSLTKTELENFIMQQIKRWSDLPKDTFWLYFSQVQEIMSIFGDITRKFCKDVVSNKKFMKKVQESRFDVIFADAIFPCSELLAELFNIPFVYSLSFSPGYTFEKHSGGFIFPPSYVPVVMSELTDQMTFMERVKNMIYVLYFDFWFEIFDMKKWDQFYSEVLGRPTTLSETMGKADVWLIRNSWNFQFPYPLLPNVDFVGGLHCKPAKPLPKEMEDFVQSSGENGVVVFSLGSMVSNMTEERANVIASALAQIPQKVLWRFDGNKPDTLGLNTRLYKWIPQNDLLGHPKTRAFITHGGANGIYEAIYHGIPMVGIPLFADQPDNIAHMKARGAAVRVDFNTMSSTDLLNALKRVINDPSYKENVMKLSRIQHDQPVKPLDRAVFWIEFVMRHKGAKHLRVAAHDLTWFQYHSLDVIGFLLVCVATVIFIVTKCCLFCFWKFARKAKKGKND
# [2] = Metabolism and stability of PTI in human lung microsomes; assay type: in vitro ADME; conditions: 0.25 mg/ml protein, 37°C
# [3] = Metabolism and stability of PTI in human liver microsomes; assay type: in vitro ADME; conditions: for metabolite formation in PTI-treated HLMs in the absence of NADPH: 20 min after initiation of the reaction
# [4] = PTI 10 mg/kg oral in corn oil, 3 h post-dosing
# [5] = Metabolism and stability of PTI in mouse liver microsomes; assay type: in vitro ADME; conditions: 0.5 mg/ml protein
# CYP3A4 = CYP3A4 (Homo sapiens, UniProt P08684); conditions: recombinant CYP3A4, DFP pre-treated, PTI 2 to 200 µM, 1 h
# [6] = Metabolism and stability of PTI in human kidney microsomes; assay type: in vitro ADME; conditions: 0.25 mg/ml protein, 37°C
# CYP2D6 = CYP2D6 (Homo sapiens, UniProt P10635); conditions: recombinant CYP2D6, DFP pre-treated, PTI 2 to 200 µM, 1 h
# [7] = Metabolism and stability of PTI in rat liver microsomes; assay type: in vitro ADME; conditions: 0.5 mg/ml protein
# [8] = Metabolism and stability of PTI in human intestine microsomes; assay type: in vitro ADME; conditions: 0.25 mg/ml protein, 37°C
# [9] = UDP-glucuronic acid, in the presence of DFP, 2 h
# [10] = 37°C, NADPH-regenerating solution
# [11] = twenty minutes after initiation, PTI 75 µM
# Sequence of CYP2D6 (P10635 whole entry): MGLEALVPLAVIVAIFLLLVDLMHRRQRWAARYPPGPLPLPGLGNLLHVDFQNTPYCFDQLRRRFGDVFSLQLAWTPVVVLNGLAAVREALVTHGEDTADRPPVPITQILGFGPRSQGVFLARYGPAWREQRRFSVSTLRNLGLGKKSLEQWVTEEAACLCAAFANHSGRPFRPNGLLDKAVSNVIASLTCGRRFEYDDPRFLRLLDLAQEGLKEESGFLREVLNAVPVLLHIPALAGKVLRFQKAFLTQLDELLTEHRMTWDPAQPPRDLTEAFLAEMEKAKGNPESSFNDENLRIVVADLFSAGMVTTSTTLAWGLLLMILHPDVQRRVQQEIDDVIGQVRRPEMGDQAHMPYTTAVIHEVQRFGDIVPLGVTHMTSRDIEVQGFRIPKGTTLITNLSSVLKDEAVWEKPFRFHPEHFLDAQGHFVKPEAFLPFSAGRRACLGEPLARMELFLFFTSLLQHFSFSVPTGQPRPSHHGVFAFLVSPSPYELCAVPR
# Sequence of CYP3A4 (P08684 whole entry): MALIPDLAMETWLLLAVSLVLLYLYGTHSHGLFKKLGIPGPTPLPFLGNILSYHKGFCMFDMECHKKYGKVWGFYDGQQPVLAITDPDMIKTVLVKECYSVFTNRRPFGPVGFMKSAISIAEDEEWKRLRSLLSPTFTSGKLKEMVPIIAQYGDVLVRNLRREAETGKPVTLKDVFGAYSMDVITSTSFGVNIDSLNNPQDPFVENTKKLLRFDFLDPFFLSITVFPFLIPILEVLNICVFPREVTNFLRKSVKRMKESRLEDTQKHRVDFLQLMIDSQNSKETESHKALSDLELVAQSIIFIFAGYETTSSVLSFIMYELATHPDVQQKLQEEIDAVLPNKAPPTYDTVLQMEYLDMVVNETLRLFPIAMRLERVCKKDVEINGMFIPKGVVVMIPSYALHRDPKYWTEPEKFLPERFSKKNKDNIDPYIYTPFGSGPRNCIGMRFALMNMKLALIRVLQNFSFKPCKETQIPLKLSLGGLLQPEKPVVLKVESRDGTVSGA
compound,measurement,setting,value
"COc1ccc2c(c1)c(CC(=O)O)c(C)n2C(=O)c1ccc(Cl)cc1 [IND, indomethacin, reference compound]",glucuronidation by UGT 2B7,[1],capable of catalyzing the glucuronidation of IND
"CCOP(=O)(OCC)OCCc1ccc(OC(=O)Cc2c(C)n(C(=O)c3ccc(Cl)cc3)c3ccc(OC)cc23)cc1 [PTI, Phospho-tyrosol-indomethacin]",CLint,[2],8.0 mL/min/g
same,t1/2,[2]; NADPH-regenerating solution,348.0 min
same,CLint,"[3]; human liver microsomes, 0.5 mg/ml protein, 37°C",100.0 mL/min/g
same,t1/2,"[3]; human liver microsomes, 0.5 mg/ml protein, 37°C, NADPH-regenerating solution",13.9 min
same,PTI hydrolyzed to yield IND,"[3]; human liver microsomes, twenty minutes after initiation, PTI 75 µM, 0.5 mg/ml protein",52%
same,intact drug in rat plasma,[4],not detected
same,CLint,[5]; 37°C,172.4 mL/min/g
same,t1/2,[5]; [10],8.0 min
same,PTI hydrolyzed to yield IND,[5]; [11],80%
same,O-demethylation of PTI Vmax,CYP3A4,1.5 pmol/min/ pmol CYP
same,CLint,[6],35.9 mL/min/g
same,t1/2,[6]; NADPH-regenerating solution,77.3 min
same,O-demethylation of PTI Vmax,CYP2D6,70.0 pmol/min/ pmol CYP
same,CLint,[7]; 37°C,36.9 mL/min/g
same,t1/2,[7]; [10],37.6 min
same,PTI hydrolyzed to yield IND,[7]; [11],22%
same,CLint,[8],210.0 mL/min/g
same,t1/2,[8]; NADPH-regenerating solution,13.2 min
same,glucuronidation in HLMs,[9],not glucuronidated
COc1ccc2[nH]c(C)c(CC(=O)O)c2c1 [debenzoyl-IND],metabolite formation in PTI-treated HLMs in the absence of NADPH,[3],detected
Cc1c(CC(=O)O)c2cc(O)ccc2n1C(=O)c1ccc(Cl)cc1 [demethyl-IND],metabolite formation in PTI-treated HLMs in the absence of NADPH,[3],not detected
